Reference: PMC11191602, “A novel and selective fluorescent ligand for the study of adenosine A2B receptors” (Pharmacology Research & Perspectives, 2024)

How the values were obtained:
[1] = target: T1, human A2BR tagged with N‐terminal nanoluciferase (NLuc‐A2BR) (Homo sapiens, UniProt P29275); assay: NanoBRET saturation binding of PSB603‐BY630 in live HEK293G cells stably expressing NLuc‐A2BR; conditions: non‐specific binding defined with 1 μM MRS‐1706, 1 h 37°C, mean of five experiments
T1 construct: expressed in transfected cells
T1 sequence (P29275 1-332): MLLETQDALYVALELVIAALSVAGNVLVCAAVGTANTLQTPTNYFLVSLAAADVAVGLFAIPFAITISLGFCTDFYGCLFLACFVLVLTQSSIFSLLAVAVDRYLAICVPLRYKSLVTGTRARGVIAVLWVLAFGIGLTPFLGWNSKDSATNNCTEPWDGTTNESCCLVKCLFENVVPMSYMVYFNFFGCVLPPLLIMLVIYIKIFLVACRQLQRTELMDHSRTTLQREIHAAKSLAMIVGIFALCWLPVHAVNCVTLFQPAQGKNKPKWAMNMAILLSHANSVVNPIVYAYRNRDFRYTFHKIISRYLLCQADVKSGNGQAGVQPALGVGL
Protocol: Saturation and competition binding assays were performed as previously described.[36] Briefly, cells were seeded in 96‐well white clear‐bottomed Greiner plates pre‐treated with 10 μg/mL poly‐D‐lysine (Sigma‐Aldrich, Missouri USA) at a density of 30 000–35 000 cells per well in DMEM supplemented with 10% FBS. The following day medium was removed and cells were incubated with PSB603‐BY630 in the presence or absence of 1 μM MRS1706 (saturation binding assays) or competing ligand in the presence of 50 nM PSB603‐BY630 (competition binding assays) in HEPES buffered saline solution (HBSS; 145 mM NaCl, 5 mM KCl, 1.3 mM CaCl2, 1 mM MgSO4, 10 mM HEPES, 2 mM sodium pyruvate, 1.5 mM NaHCO3, 10 mM D‐glucose, pH 7.45) with 0.1% bovine serum albumin for 1 h at 37°C. […] The resulting bioluminescence resonance energy transfer (BRET) was measured using a PHERAstar FS plate reader (BMG Labtech) at 37°C. For each well, filtered light emissions at 460 nm (80 nm bandpass) and >610 nm (longpass) for the BODIPY630/650 ligand were simultaneously measured. BRET ratios were calculated by dividing the 610 nm emission by the 460 nm emission. […] For kinetic experiments, cells were preincubated for 10 min with 1:400 dilution of furimazine prior to addition of 200 nM PSB603‐BY630 and BRET ratios determined every 0.5 min. […]
Data were analyzed using Prism 7.4 software (GraphPad, San Diego, USA). […]

NLuc‐A2BR = target: T2, NLuc‐A2BR (Homo sapiens, UniProt P29275); assay: cAMP GloSensor luminescence assay in HEK293G cells overexpressing NLuc‐A2BR; type: cell-based; conditions: 20 nM and 200 nM PSB603‐BY630, overexpressed NLuc‐A2BR
T2 construct: expressed in transfected cells
T2 sequence (P29275 1-332): T1 sequence (P29275 1-332)
Protocol: The cAMP GloSensor™ luminescence assay was performed according to the manufacturer's instructions (Promega Corporation, Madison, WI, USA). Briefly, after 24 h incubation at 37°C and 5% CO2 after cell plating (40 000 cells/well in 100 μL), medium was aspirated from each well of the 96‐well plate. Cells were incubated in 50 μL HEPES buffered saline solution (HBSS; 2 mM sodium pyruvate, 145 mM NaCl, 10 mM D‐glucose, 5 mM KCl, 1 mM MgSO4.7H2O, 10 mM HEPES, 1.3 mM CaCl2, 1.5 mM NaHCO3 in double‐distilled water, pH 7.45) containing 3% GloSensor™ cAMP reagent at 37°C for 1.5 h. For agonist studies, an initial baseline luminescence read was made at time zero, the plate was then removed from the plate‐reader and a further 50 μL HBSS containing agonist (2× final concentration) or HBSS (vehicle control) added. Luminescence was measured on an open channel (gain of 3600) immediately after these additions, and then continuously over 60 min, reading each well once every minute, by a PHERAstar FSX microplate reader (BMG Labtech, Offenburg, Germany) at 37°C. Increases in luminescence are indicative of intracellular cAMP accumulation, thus the temporal changes in relative cytosolic cAMP concentration were measured upon agonist or vehicle addition. Antagonist action was determined following 30 min pre‐incubation of HBSS in the presence of 20 and 200 nM PSB603‐BY630 and read as above. All conditions were performed in triplicates within each plate.

human NLuc‐A3R = target: T3, human NLuc‐A3R (Homo sapiens, UniProt P0DMS8); assay: NanoBRET saturation binding in stable HEK293G cell line expressing NLuc‐A3R; conditions: non‐specific defined with 1 μM MRS‐1220; PSB603‐BY630 at concentrations up to 500 nM
T3 construct: expressed in transfected cells
T3 sequence (P0DMS8 1-318): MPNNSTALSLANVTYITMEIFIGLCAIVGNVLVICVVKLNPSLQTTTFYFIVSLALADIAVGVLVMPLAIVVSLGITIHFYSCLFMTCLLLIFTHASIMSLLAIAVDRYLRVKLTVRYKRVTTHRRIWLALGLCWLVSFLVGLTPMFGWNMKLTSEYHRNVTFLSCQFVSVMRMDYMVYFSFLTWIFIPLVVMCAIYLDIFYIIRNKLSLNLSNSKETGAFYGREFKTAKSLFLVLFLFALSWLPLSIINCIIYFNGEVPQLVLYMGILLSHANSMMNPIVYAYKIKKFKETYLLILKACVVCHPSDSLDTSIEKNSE
Protocol: Saturation and competition binding assays were performed as previously described.[36] Briefly, cells were seeded in 96‐well white clear‐bottomed Greiner plates pre‐treated with 10 μg/mL poly‐D‐lysine (Sigma‐Aldrich, Missouri USA) at a density of 30 000–35 000 cells per well in DMEM supplemented with 10% FBS. […] The NanoLuc substrate, furimazine (Promega Corporation, Wisconsin, USA), was then added to each well (1:400 dilution) and the plate was incubated for 10 min in the dark at 37°C. The resulting bioluminescence resonance energy transfer (BRET) was measured using a PHERAstar FS plate reader (BMG Labtech) at 37°C. For each well, filtered light emissions at 460 nm (80 nm bandpass) and >610 nm (longpass) for the BODIPY630/650 ligand were simultaneously measured. BRET ratios were calculated by dividing the 610 nm emission by the 460 nm emission. All conditions were performed in 2–6 replicates within each plate. For kinetic experiments, cells were preincubated for 10 min with 1:400 dilution of furimazine prior to addition of 200 nM PSB603‐BY630 and BRET ratios determined every 0.5 min. At 60 min, 10 μM MRS‐1706 was added and the ligand‐binding kinetics followed for a further 60 min.

SMILES: CCCn1c(=O)[nH]c2[nH]c(-c3ccc(S(=O)(=O)N4CCN(c5ccc(OCCNC(=O)CCCCCNC(=O)COc6ccc(/C=C/C7=[N+]8C(=Cc9ccc(-c%10cccs%10)n9[B-]8(F)F)C=C7)cc6)cc5)CC4)cc3)nc2c1=O [PSB603‐BY630]
- Kd [1]: 0.0183 µM
- effect on cAMP concentration‐response curve to BAY 60–6583 (NLuc‐A2BR): small increase in the EC50 for BAY 60–6583
- specific binding to NLuc‐A3R (human NLuc‐A3R): negligible
